From US12351590B2, “Pyrrolopyrimidine compound and use thereof” (GUANGZHOU JOYO PHARMATECH CO., LTD., priority 2019, dated 2025)

How the values were obtained:
Caco-2 cells = system: Caco-2 cells
Method: The transport buffer solution was HBSS (Hanks' balanced salt solution) and 10 mM HEPES [N-(2-hydroxyethyl)piperazine-N′-(2-ethanesulfonic acid)], pH 7.40±0.05; Caco-2 cells were purchased from ATCC.
Caco-2 cells were seeded at 1×10^5 cells/cm^2 in polyethylene terephthalate (PET) 96-well BD insert plates, and the medium was refreshed every 4-5 days until day 21-28 to form a confluent monolayer. Test compounds were tested in a two-way format at 2 μM in duplicate. Digoxin was added at 10 μM in the two-way format, and nadolol and metoprolol were added at 2 μM in the two-way format. Final DMSO concentration was adjusted to less than 1%. The plates were incubated in a CO2 incubator at 37±1° C. for 2 h and at 5% CO2 and saturated humidity without shaking. All samples were mixed with acetonitrile containing an internal standard, centrifuged at 4000 rpm for 10 min. 100 microliters of supernatant was diluted with 100 microliters of distilled water for LC/MS/MS analysis. By LC/MS/MS analysis, the concentrations of the test compounds and the reference compound in the initial test compound solution, the test compound solution and the test article solution using the peak area ratio of the analyte to the internal standard. After the transport test, the integrity of the Caco-2 cell monolayer was determined by fluorescein yellow exclusion reaction, and the apparent permeability coefficient and efflux ratio were calculated.

[1] = system: rat adjuvant-induced arthritis model; assay: Adjuvant-induced arthritis (AIA) in rats, in-vivo pharmacodynamic study; parameters: species or system Lewis rats; conditions: for Inhibition on area under the clinical score curve, AUC (%): oral, 2 times daily, female Lewis rats; for Mean clinical arthritis score: 10 mg/kg group
Method: The compounds disclosed herein were tested for their efficacy on arthritis using a rat adjuvant-induced arthritis model. Female, 160- and 180-gram Lewis rats were anesthetized with isoflurane and injected subcutaneously with 0.1 mL of Mycobacterium tuberculosis suspension in the left hind paw. The animals were grouped and administered with the compounds 13 days after modeling. The test compound 1-13 was dissolved in a mixed vehicle of [5% DMSO, 95% (12% SBE-β-CD), 0.5% MC]. The female Lewis rats were orally administered 2 times daily (8 animals in each group).

JAK2(h) = JAK2(h) (Homo sapiens (Human), UniProt O60674); assay: In vitro activity assay of JAK2 kinase (radiometric [γ-33P]-ATP); assay type: biochemical; conditions: recombinant human JAK2
Sequence of JAK2(h) (O60674 whole entry): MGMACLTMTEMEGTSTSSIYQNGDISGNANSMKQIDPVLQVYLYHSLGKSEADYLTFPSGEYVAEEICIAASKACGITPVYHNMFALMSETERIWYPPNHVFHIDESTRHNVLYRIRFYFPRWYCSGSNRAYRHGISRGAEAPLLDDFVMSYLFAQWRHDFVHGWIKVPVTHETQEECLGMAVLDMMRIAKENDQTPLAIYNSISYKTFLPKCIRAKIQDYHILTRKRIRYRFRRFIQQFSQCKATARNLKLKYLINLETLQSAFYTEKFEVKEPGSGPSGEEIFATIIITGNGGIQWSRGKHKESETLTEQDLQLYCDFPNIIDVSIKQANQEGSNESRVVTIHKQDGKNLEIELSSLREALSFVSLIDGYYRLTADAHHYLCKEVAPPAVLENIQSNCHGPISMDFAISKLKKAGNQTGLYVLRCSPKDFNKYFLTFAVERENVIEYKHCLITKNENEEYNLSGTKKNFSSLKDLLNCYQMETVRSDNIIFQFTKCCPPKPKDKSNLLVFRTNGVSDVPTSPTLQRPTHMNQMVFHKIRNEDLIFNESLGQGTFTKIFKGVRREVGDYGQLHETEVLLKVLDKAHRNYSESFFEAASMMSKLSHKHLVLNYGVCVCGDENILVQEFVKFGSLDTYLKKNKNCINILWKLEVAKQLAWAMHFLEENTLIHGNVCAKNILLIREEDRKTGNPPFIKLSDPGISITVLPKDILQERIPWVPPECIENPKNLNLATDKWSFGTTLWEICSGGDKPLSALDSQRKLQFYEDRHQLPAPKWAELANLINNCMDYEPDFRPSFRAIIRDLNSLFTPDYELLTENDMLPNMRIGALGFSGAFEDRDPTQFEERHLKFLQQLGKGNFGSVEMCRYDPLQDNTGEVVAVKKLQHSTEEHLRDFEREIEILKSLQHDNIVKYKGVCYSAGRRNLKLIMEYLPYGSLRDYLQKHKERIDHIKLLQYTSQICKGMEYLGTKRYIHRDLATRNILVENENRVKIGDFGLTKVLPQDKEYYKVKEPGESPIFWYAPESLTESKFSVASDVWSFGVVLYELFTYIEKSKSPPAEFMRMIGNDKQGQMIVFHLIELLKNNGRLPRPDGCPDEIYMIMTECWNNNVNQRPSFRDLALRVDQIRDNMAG
Method: (§1) Recombinant human JAK1, JAK2, JAK3 and TYK2 […], and main instruments and reagents were provided by Eurofins, UK
(§2) JAK2, JAK3 and TYK2 dilutions: 20 mM 3-(N-morpholino)propanesulfonic acid (MOPS), 1 mM EDTA, 0.01% Brij-35.5% glycerol, 0.1% β-mercaptoethanol, 1 mg/mL BSA; JAK1 dilution: 20 mM TRIS, 0.2 mM EDTA, 0.1% β-mercaptoethanol, 0.01% Brij-35.5% glycerol. All compounds were prepared in 100% DMSO and brought to 50 fold the final assay concentration. The test compounds were serially 3-fold diluted to 9 concentrations from 10 μM to 0.001 μM with DMSO content in the assay reaction being 2%. Working stock solutions of the compounds were added to the assay wells as the first component of the reaction, and then the remaining components were added according to the assay protocol detailed below.
JAK2(h) was incubated with 8 mM MOPS pH 7.0, 0.2 mM EDTA, 100 μM […], 10 mM magnesium acetate and [γ-^33P]-ATP (activity and concentration were determined as required). The reaction was started by adding the Mg/ATP mixture and terminated by adding 0.5% phosphoric acid after 40 min of incubation at room temperature. 10 μL of the reaction mixture was then added dropwise on a P30 filter pad and washed three times with 0.425% phosphoric acid and once with methanol within 4 minutes, dried and analyzed using a scintillation counter.

JAK3(h) = JAK3(h) (Homo sapiens (Human), UniProt P52333); assay: In vitro activity assay of JAK3 kinase (radiometric [γ-33P]-ATP); assay type: biochemical; conditions: recombinant human JAK3
Sequence of JAK3(h) (P52333 whole entry): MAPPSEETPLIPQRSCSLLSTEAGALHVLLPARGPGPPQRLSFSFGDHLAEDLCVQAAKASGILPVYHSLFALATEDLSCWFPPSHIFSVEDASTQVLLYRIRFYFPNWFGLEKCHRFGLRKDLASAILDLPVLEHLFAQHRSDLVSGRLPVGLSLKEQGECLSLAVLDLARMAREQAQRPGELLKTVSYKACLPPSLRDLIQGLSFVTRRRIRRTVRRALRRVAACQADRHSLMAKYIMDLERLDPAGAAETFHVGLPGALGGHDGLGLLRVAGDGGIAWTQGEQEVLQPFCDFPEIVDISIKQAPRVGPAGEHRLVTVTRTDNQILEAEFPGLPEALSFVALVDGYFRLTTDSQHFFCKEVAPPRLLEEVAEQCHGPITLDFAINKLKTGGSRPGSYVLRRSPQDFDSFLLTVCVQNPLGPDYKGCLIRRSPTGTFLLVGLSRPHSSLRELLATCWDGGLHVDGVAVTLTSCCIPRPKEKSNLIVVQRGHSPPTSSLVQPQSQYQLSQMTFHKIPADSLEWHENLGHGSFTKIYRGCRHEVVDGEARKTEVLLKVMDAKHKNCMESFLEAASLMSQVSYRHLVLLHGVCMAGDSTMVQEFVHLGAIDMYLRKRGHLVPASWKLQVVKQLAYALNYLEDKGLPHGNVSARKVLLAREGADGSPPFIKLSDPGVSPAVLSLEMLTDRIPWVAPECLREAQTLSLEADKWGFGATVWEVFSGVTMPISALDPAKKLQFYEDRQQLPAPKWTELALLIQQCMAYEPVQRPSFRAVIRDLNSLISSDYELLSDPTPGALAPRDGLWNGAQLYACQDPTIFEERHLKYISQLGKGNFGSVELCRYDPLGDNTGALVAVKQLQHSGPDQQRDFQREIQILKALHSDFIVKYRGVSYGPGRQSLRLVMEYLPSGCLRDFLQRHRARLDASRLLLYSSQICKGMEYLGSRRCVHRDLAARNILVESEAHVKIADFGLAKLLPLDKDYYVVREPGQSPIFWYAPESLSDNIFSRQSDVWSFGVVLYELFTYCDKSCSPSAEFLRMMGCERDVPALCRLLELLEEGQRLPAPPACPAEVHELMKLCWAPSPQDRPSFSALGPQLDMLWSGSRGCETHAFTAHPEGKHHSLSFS
Method: as §1, §2
JAK3(h) was incubated with 8 mM MOPS pH 7.0, 0.2 mM EDTA, 500 μM GGEEEEYFELVKKKK, 10 mM magnesium acetate and [γ-^33P]-ATP (activity and concentration were determined as required). The reaction was started by adding the Mg/ATP mixture and terminated by adding 0.5% phosphoric acid after 40 min of incubation at room temperature. 10 μL of the reaction mixture was then added dropwise on a P30 filter pad and washed three times with 0.425% phosphoric acid and once with methanol within 4 minutes, dried and analyzed using a scintillation counter.

[2] = Pharmacokinetic (PK) study in mice; assay type: in vivo, mice (C57BL/6); conditions: male C57BL/6 mice
Method: Clear solutions obtained by dissolving the test compounds were administered to male mice (C57BL/6) or rats (SD) by tail vein injection and oral gavage (overnight fasting, 7-8 weeks old). After the administration of the test compounds, plasma was separated from blood collected from the mandibular vein and centrifugation at 0.117, 0.333, 1, 2, 4, 7 and 24 h for the intravenous injection group (1 mg/kg), and at 0.25, 0.5, 1, 2, 4, 8 and 24 h for the oral gavage group (3 mg/kg). The plasma concentration was measured by LC-MS/MS method, and the relevant pharmacokinetic parameters were calculated by WinNonlin™ Version 6.3 pharmacokinetic software using non-compartmental model linear logarithmic trapezoid method.

TYK2(h) = TYK2(h) (Homo sapiens (Human), UniProt P29597); assay: In vitro activity assay of TYK2 kinase (radiometric [γ-33P]-ATP); assay type: biochemical; conditions: recombinant human TYK2
Sequence of TYK2(h) (P29597 whole entry): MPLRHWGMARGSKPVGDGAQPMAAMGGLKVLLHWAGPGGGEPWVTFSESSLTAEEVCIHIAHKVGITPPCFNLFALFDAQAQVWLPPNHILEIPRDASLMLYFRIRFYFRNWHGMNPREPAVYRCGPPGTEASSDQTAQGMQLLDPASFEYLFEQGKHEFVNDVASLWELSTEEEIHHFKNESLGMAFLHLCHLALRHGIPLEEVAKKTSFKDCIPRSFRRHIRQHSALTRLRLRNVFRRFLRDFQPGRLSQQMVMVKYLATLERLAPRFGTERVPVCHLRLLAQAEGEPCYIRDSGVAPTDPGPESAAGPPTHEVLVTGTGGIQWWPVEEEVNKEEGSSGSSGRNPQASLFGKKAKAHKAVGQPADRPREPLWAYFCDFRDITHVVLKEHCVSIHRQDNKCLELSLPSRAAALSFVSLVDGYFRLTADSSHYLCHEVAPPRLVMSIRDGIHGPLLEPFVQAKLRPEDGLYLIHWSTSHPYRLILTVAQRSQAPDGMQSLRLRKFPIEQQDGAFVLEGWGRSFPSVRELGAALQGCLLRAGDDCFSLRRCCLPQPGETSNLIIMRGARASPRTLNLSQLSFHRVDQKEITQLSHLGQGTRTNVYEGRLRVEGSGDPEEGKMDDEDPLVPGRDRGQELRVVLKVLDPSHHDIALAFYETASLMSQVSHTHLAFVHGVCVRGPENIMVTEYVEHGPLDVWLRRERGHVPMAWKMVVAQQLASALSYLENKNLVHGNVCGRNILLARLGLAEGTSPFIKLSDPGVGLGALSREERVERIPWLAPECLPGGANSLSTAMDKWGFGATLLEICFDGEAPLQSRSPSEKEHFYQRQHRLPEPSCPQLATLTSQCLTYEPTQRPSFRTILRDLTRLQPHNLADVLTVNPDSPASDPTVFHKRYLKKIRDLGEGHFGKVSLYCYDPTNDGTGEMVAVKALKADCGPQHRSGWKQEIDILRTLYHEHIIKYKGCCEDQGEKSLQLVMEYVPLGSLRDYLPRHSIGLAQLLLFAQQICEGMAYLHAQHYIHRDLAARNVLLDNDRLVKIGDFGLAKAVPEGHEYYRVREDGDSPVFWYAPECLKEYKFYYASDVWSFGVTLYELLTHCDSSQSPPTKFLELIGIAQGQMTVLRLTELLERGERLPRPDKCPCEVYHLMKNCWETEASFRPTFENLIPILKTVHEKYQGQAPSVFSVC
Method: as §1, §2
TYK2(h) was incubated with 8 mM MOPS pH 7.0, 0.2 mM EDTA, 250 μM GGMEDIYFEFMGGKKK, 10 mM magnesium acetate and [γ-^33P]-ATP (activity and concentration were determined as required). The reaction was started by adding the Mg/ATP mixture and terminated by adding 0.5% phosphoric acid after 40 min of incubation at room temperature. 10 μL of the reaction mixture was then added dropwise on a P30 filter pad and washed three times with 0.425% phosphoric acid and once with methanol within 4 minutes, dried and analyzed using a scintillation counter.

JAK1(h) = JAK1(h) (Homo sapiens (Human), UniProt P23458); assay: In vitro activity assay of JAK1 kinase (radiometric [γ-33P]-ATP); assay type: biochemical; conditions: recombinant human JAK1
Sequence of JAK1(h) (P23458 whole entry): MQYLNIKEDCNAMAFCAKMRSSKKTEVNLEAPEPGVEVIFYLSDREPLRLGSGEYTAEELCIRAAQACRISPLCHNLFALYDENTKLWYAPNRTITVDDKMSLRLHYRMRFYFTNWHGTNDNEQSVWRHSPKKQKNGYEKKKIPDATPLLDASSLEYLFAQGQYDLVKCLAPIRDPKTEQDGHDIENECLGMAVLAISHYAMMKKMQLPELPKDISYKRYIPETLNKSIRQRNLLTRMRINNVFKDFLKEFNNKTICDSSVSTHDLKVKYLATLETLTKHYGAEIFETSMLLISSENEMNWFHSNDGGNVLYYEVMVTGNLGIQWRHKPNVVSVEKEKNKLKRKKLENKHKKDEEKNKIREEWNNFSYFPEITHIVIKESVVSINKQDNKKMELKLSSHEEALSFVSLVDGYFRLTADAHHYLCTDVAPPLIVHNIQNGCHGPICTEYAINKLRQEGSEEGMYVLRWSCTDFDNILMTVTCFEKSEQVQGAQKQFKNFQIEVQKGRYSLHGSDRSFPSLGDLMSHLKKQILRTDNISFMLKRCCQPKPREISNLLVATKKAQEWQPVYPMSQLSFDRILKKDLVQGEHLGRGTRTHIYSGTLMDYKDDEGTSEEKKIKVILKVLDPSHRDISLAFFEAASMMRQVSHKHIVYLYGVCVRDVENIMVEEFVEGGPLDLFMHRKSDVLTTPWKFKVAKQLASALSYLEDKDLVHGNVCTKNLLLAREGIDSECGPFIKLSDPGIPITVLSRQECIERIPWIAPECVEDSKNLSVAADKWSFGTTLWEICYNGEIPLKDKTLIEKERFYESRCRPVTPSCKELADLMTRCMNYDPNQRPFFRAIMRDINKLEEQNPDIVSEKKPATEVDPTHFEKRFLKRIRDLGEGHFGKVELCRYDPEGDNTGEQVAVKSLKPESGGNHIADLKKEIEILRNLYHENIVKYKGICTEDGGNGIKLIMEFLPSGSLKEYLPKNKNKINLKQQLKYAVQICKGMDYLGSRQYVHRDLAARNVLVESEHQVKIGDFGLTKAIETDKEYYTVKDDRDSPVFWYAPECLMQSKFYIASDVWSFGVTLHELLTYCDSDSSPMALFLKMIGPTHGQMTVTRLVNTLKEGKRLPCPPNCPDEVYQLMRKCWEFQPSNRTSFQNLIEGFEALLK
Method: as §1, §2
JAK1(h) was incubated with 20 mM Tris/HCl pH 7.5, 0.2 mM EDTA, 500 μM MGEEPLYWSFPAKKK, 10 mM magnesium acetate and [γ-^33P]-ATP (activity and concentration were determined as required). The reaction was started by adding the Mg/ATP mixture and terminated by adding 0.5% phosphoric acid after 40 min of incubation at room temperature. 10 μL of the reaction mixture was then added dropwise on a P30 filter pad and washed three times with 0.425% phosphoric acid and once with methanol within 4 minutes, dried and analyzed using a scintillation counter.

[3] = i.v. 1 mg/kg and oral gavage 3 mg/kg groups, route not given

CC(C)(C)NCC(O)COc1cccc2c1CC(O)C(O)C2 (centres unmarked) [Nadolol, reference compound]
Mean apparent permeability coefficient Mean Papp (10^−6 cm/s) A to B (Caco-2 cells; Caco-2, pH 7.4): 0.16 10^−6 cm/s

CN(c1ncnc2[nH]ccc12)[C@@H]1CCc2cc(C#N)nn2C1 [Compound 1-13]
Effect on the weight loss trend of animals caused by disease attack ([1]; 3 mg/kg and 10 mg/kg, vs solvent control group, significant difference since day 20): significant relieving effect | Therapeutic effect (inhibition rate versus vehicle control) ([1]; 3 mg/kg and 10 mg/kg, P<0.0001 versus vehicle control): significant therapeutic effect | Inhibition on area under the clinical score curve, AUC (%) ([1]; 3 mg/kg): 49.6% | Mean clinical arthritis score ([1]; day 13 (start of dosing)): 6 points | Mean clinical arthritis score ([1]; day 27 (study endpoint)): 1.4 points | Inhibition on area under the clinical score curve, AUC (%) ([1]; 10 mg/kg): 60.5% | Increase in clinical arthritis score ([1]; dose-dependent, 3 and 10 mg/kg): inhibited | Increase in paw volume ([1]; dose-dependent, 3 and 10 mg/kg): inhibited | IC50 (JAK2(h)): 8 nM | IC50 (JAK3(h)): 118 nM | AUC0-inf [2, 3]: 12.765 µM·h | Cmax [2, 3]: 6 µM | T1/2 [2, 3]: 1.89 h | Bioavailability (%) ([2]; oral gavage 3 mg/kg vs i.v. 1 mg/kg): 88.4% | IC50 (TYK2(h)): 15 nM | Efflux ratio (Caco-2 cells; Caco-2): 1.09 | Mean apparent permeability coefficient Mean Papp (10^−6 cm/s) A to B (Caco-2 cells; Caco-2, pH 7.4): 28.58 10^−6 cm/s | Mean apparent permeability coefficient Mean Papp (10^−6 cm/s) B to A (Caco-2 cells; Caco-2, pH 7.4): 31.18 10^−6 cm/s | IC50 (JAK1(h)): 1 nM
